Data from PubChem BioAssay (NCI).
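96-well plates; 48 h exposure; 5 concentrations. Endpoints by linear interpolation between flanking doses. Not reached: highest tested concentration assigned. TGI is the concentration that stops growth completely.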

Assays:
Test in all cases: NCI anticancer screen, dose series, 48 h
TK-10 renal = system: TK-10 renal
786-0 renal = system: 786-0 renal
RPMI-8226 leukemia = system: RPMI-8226 leukemia
HCT-116 colon = system: HCT-116 colon
SNB-19 CNS = system: SNB-19 CNS
SK-OV-3 ovarian = system: SK-OV-3 ovarian
SF-295 CNS = system: SF-295 CNS
T-47D breast = system: T-47D breast
PC-3 prostate = system: PC-3 prostate
K-562 leukemia = system: K-562 leukemia

Compound	TGI (TK-10 renal) [µM]	TGI (786-0 renal) [µM]	TGI (RPMI-8226 leukemia) [µM]	TGI (HCT-116 colon) [µM]	TGI (SNB-19 CNS) [µM]	TGI (SK-OV-3 ovarian) [µM]	TGI (SF-295 CNS) [µM]	TGI (T-47D breast) [µM]	TGI (PC-3 prostate) [µM]	TGI (K-562 leukemia) [µM]
Cc1ccc2n(c1)cc(-c1ccc(/C=N/NC(=N)N/N=C/c3ccc(-c4cn5cc(C)ccc5[n+]4C)cc3)cc1)[n+]2C	> 100	> 100	> 100	> 100	> 100	> 100	> 100	> 100	> 100	
C=C1C2C[C@@H]3OC4CC5O[C@]6(CC5OC4C(C)C3OC(=O)CC3CC[C@@H]4OC5C7OC8C[C@](CCC9CC(=C)[C@H](CCC(C[C@H]1C)O2)O9)(OC7C4O3)O[C@@H]85)C[C@@H]1O[C@@]2(CC(C)[C@@H]3OC(CC(=O)CCO)C(O)C[C@@H]3O2)CC(C)[C@@H]1O6 (stereo not given in full)		1.09		0.00111	0.816	0.905	< 0.001			
COc1cc(S(=O)(=O)Nc2ccc(-c3csc(N4C(=O)C(Cl)C4c4cccc(Oc5ccccc5)c4)n3)cc2)ccc1Cl (stereo not given)		26.5	> 100	> 100	> 100	> 100	> 100	41.9	30.8	91.2
CC(=O)Oc1c2c(c(OC(C)=O)c3c1n(C(C)=O)c1ccccc1n3C(C)=O)n(C(C)=O)c1ccccc1n2C(C)=O			10.8		53.8	50	28.9			> 100
C[N+](C)(C)CCOC(=O)/C=C/c1cnc[nH]1			> 500	> 500	> 500	> 500	> 500			> 500
C=CC(C)(C)C1(CC(OC)OC)C(=O)N(C)c2ccccc21 (stereo not given)		> 25	> 25	> 25	> 25	> 25	> 25	> 25	> 25	> 25
O=C1C(C(c2ccc([N+](=O)[O-])cc2)N2CCOCC2)=C(O)C(c2ccccc2)N1c1ccccc1 (stereo not given)	> 10	> 10	> 10	> 10	> 10	> 10	> 10	> 10	> 10	> 10
N=c1n(CC(=O)NC23CC4CC(CC(C4)C2)C3)c2ccccc2n1CC(=O)NC12CC3CC(CC(C3)C1)C2	3.08	3.19	6.07	3.46	3.02	29.1	3.52			5.54
CCCCC(=C=C(C)CO)C1CCCN1C(=O)OC(C)(C)C (stereo not given)	48.1	30.5	36.8	29.5	60.2	67.4	31.7	> 100	38.1	38.4
C[N+](C)=c1ccc2nc3c(ccc4ccccc43)oc-2c1	31.1	28.9	> 64.7	20.3	31.6	33.5	29			9.39
CCOC(=O)CCC(NC(=O)c1ccc(Nc2nc3cc(C(F)(F)F)ccc3nc2C(=O)OCC)cc1)C(=O)OCC (stereo not given)		5.5	> 100	19.9	22.6		19.3	29.7	21.5	> 100
Nc1ncnc2c1sc(=S)n2-c1ccccc1	> 100	> 100	> 100	> 100	> 100	> 100	> 100			> 100
